Test system: subjects with active autoantibody-positive SLE
Assay: Phase 2b study in SLE: Lupus Low Disease Activity State (LLDAS) response
Format: in vivo, human
Conditions: for percentages of LLDAS responders: Week 24; for LLDAS response at Week 24, stratified difference from placebo / percentage of subjects who achieved LLDAS response at Week 24: overall subjects; for percentage of subjects who achieved LLDAS response at Week 24: NRI, ITT
Method: The pharmacokinetics, pharmacodynamics (PD), efficacy, and safety of oral iberdomide ((S)-3-[4-({4-[(morpholin-4-yl)methyl]phenyl}methoxy)-1-oxo-1,3-dihydro-2H-isoindol-2-yl]piperidine-2,6-dione-hydrogen chloride (1/1)) were evaluated in a phase 2b study in subjects with active autoantibody-positive SLE.
Adult SLE patients (N=288) with a ≥6-month history of SLE and SLE Disease Activity Index (SLEDAI 2K) ≥6 were randomized to placebo (n=83) or iberdomide 0.15 mg QD (n=42), 0.3 mg QD (n=82), or 0.45 mg QD (n=81). Clinical response was determined by the SLE Responder Index 4 (SRI-4) at week 24 for all patients and within pre-specified biomarker-enriched subsets based on expression of Ikaros, Aiolos, the Type 1 IFN signature (IFI27, IFI44, IFI44L, RSAD2), and other gene modules measured from fingerstick blood collected at baseline (Modular Immune Profile Test, DxTerity Diagnostics, Inc.). The primary objective of the study was to evaluate the clinical efficacy of 3 doses of iberdomide (0.45 mg once per day [QD], 0.30 mg QD, or 0.15 mg QD) compared to placebo, for the treatment of active SLE using the SLE Responder Index at Week 24.
The percentages of LLDAS responders for key mRNA and DNA subgroups were as follows: • IKZF1 high: 23.4%, 17.0%, and 14.3% for 0.45 mg, 0.30 mg, and 0.15 mg QD iberdomide, respectively, compared with 12.5% for placebo. • IKZF3 high: 27.8%, 9.4%, 14.3%, respectively, compared with 11.1% for placebo. • Type 1 IFN module high: 17.5%, 14.3%, and 24.0%, respectively, compared with 8.3% for placebo. • Ikaros IFN module high: 16.1%, 14.3%, and 20.0%, respectively, compared with 8.2% for placebo. Drug Dose, Drug Concentration, and Relationship to Response

O=C1CC[C@H](N2Cc3c(OCc4ccc(CN5CCOCC5)cc4)cccc3C2=O)C(=O)N1 [iberdomide, (S)-3-[4-({4-[(morpholin-4-yl)methyl]phenyl}methoxy)-1-oxo-1,3-dihydro-2H-isoindol-2-yl]piperidine-2,6-dione-hydrogen chloride (1/1)]
percentages of LLDAS responders (IKZF1 high, 0.15 mg QD): 14.3%
percentages of LLDAS responders (IKZF1 high, 0.30 mg QD): 17.0%
percentages of LLDAS responders (IKZF1 high, 0.45 mg QD): 23.4%
percentages of LLDAS responders (IKZF3 high, 0.15 mg QD): 14.3%
percentages of LLDAS responders (IKZF3 high, 0.30 mg QD): 9.4%
percentages of LLDAS responders (IKZF3 high, 0.45 mg QD): 27.8%
percentages of LLDAS responders (Ikaros IFN module high, 0.15 mg QD): 20.0%
percentages of LLDAS responders (Ikaros IFN module high, 0.30 mg QD): 14.3%
percentages of LLDAS responders (Ikaros IFN module high, 0.45 mg QD): 16.1%
percentages of LLDAS responders (Type 1 IFN module high, 0.15 mg QD): 24.0%
percentages of LLDAS responders (Type 1 IFN module high, 0.30 mg QD): 14.3%
percentages of LLDAS responders (Type 1 IFN module high, 0.45 mg QD): 17.5%
LLDAS response at Week 24, stratified difference from placebo (0.15 mg QD): 6.7%
percentage of subjects who achieved LLDAS response at Week 24 (0.15 mg QD): 19.0%
percentage of subjects who achieved LLDAS response at Week 24 (0.30 mg QD): 17.1%
LLDAS response at Week 24, stratified difference from placebo (0.45 mg QD): 6.9%
percentage of subjects who achieved LLDAS response at Week 24 (0.45 mg QD): 19.8%
